The values below come from patent US8329675B2, “Inhibitors of fatty acid amide hydrolase” (Infinity Pharmaceuticals, Inc., priority 2006, dated 2012).

The target of the first assay is T1, human FAAH (Homo sapiens, UniProt O00519).
T1 construct: host or cells: COS-7 cells, transient transfection; 13,000 g membrane fraction solubilised in 1% Triton X-100
T1 sequence (O00519 1-579): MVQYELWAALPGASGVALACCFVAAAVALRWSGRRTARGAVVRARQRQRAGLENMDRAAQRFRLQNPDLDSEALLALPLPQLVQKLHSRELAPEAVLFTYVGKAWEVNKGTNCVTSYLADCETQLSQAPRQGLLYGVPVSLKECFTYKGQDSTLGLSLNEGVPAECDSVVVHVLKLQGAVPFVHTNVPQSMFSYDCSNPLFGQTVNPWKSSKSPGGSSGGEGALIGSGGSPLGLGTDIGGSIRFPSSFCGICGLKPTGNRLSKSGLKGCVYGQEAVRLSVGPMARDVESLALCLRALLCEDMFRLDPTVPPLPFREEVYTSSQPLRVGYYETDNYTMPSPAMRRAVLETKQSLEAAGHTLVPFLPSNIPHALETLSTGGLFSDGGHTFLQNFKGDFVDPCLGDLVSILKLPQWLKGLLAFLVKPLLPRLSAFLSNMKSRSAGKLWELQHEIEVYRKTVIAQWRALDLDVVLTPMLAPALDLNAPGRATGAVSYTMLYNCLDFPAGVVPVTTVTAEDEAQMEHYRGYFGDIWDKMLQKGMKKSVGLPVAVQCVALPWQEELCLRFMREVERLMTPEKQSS
Nature of the assay: Human FAAH biochemical inhibition assay (AMC arachidonoyl amide fluorescence).
Conditions: not given
Here is the method:
The resulting solution is added into one dish of 30-40% confluent COS-7 cells in a drop-wise manner. The COS-7 cell dish is subsequently incubated for 48 hours. The cells are then harvested.
Harvest procedure: Media was aspirated from the dishes and the cells rinsed with 10 mL PBS. The PBS was removed and 3 mLs of PBS added to the dish. The dish was scraped to resuspend the cells, and the subsequent cell suspension collected into a 15 ml conical tube. The cells were pelleted by centrifugation at 1200 rpm for 5 minutes in a bench top centrifuge. PBS was removed and the cell pellet snap frozen in liquid nitrogen, store at −80 C.
The pellets were dounce homogenized and then sonicated to produce cell extract. The cell extract was subsequently centrifuged at 1000 g to remove cellular debris. The pellet was discarded and the supernatant centrifuged at 13,000 g for 20 minutes. The pellet contained membrane bound FAAH. The supernatant was discarded and the pellet resolubilized.
(2) Re-solubilization: The fraction of interest, (13,000 g, membrane fraction) was re-suspended in re-suspension buffer (20 mM Hepes pH 7.8, 10% v/v Glycerol, 1 mM EDTA, 1% Triton X-100) (2.3 mL re-suspension and the sample incubated on ice for 1 hour and then centrifuged to at 13,000 g remove any particulate matter. The supernatant containing solubilized human FAAH was aliquoted and snap frozen in liquid nitrogen and stored at −80° C. until use.
FAAH reaction buffer: 50 mM Hepes (pH 7.5), 1 mM EDTA, 0.2% Triton X-100.
Human FAAH assay; Experimental Protocol: A 0.1 mg/mL Human FAAH solution is made up in FAAH reaction buffer, and 24 ul pipetted into a 384 well plate. To this is added 1 uL of a 3 fold serially diluted inhibitor from a DMSO stock solution. The FAAH solution and inhibitor are incubated for 30 minutes at room temperature. The FAAH reaction is initiated by the addition of 25 uL of 40 uM AMC Arachidonoyl Amide in FAAH reaction buffer, yielding a final reaction human FAAH preparation concentration of 0.05 mg/ml and AMC-Arachidonoyl substrate concentration of 20 uM, reaction volume 50 uL. The reaction is allowed to proceed for 4 hours at room temperature. […] The microtiter plate in read in the envision plate reader.
Take `OB(O)c1ccc(Cl)cc1` [Compound I-82]: the Ki (as a rule, a dissociation constant, usually derived from enzyme kinetics or from competition with a known ligand) was in the range of 10 to 1000 nM.

The same assay, now with this note: Table 1, human FAAH (no asterisk); read-out: Activity (Ki).
As for `OB(O)c1cc(I)ccc1F` [Compound I-1], the Ki lay within 10 to 1000 nM.
`OB(O)c1cccc(I)c1` [Compound I-2]: the Ki lay in the range of 10 to 100 nM.
In the case of `CC1(C)OB(c2cccc3cc[nH]c23)OC1(C)C` [Compound I-3], the Ki was greater than 1000 nM.
Regarding `OB(O)c1cccc2c1oc1ccccc12` [Compound I-4], the Ki lay in the range of 10 to 1000 nM.
As for `COc1cccc(COc2c(Br)cccc2B(O)O)c1` [Compound I-5], the Ki is greater than 1000 nM.
Regarding `CCOc1ccc(Br)cc1B(O)O` [Compound I-6], the Ki is greater than 1000 nM.
On to `CC(C)Oc1c(Br)cc(F)cc1B(O)O` [Compound I-7], for which the Ki is greater than 1000 nM.
Same read-out and setting: the figure for `CCCOc1c(Br)cc(F)cc1B(O)O` [Compound I-8] is greater than 1000 nM.
As for `CCOc1c(Br)cc(F)cc1B(O)O` [Compound I-9], the Ki fell in the range of 10 to 1000 nM.
For `COc1c(Br)cc(F)cc1B(O)O` [Compound I-10], the Ki lay within 10 to 100 nM.
In the case of `OB(O)C1=CCCCCC1` [Compound I-11], the Ki was greater than 1000 nM.
In the case of `COc1ccc(Br)cc1B(O)O` [Compound I-12], the Ki is greater than 1000 nM.
As for `OB(O)c1cc(F)cc(C(F)(F)F)c1` [Compound I-13], the Ki was 10 to 100 nM.
As to `Cc1cc(F)cc(B(O)O)c1` [Compound I-14], the Ki lay in the range of 10 to 1000 nM.
Regarding `COc1cc(F)cc(B(O)O)c1` [Compound I-15], the Ki is 10 to 1000 nM.
Regarding `CCOc1cc(F)cc(B(O)O)c1` [Compound I-16], the Ki fell in the range of 10 to 1000 nM.
In the case of `COc1cc(Br)cc(B(O)O)c1` [Compound I-17], the Ki was greater than 1000 nM.
As for `OB(O)c1cc(F)cc(Cl)c1` [Compound I-18], the Ki is 10 to 100 nM.
As to `CCOc1cc(B(O)O)cc(C(F)(F)F)c1` [Compound I-19], the Ki was greater than 1000 nM.
Regarding `Cc1cc(Cl)cc(B(O)O)c1` [Compound I-20], the Ki was 10 to 1000 nM.
For the molecule `COc1cc(B(O)O)cc(C(F)(F)F)c1` [Compound I-21], the Ki is greater than 1000 nM.
For the molecule `OB(O)c1cc(Cl)cc(Cl)c1` [Compound I-22], the Ki was 10 to 1000 nM.
On to `OB(O)c1cc(Br)cc(Br)c1` [Compound I-23], for which the Ki was in the range of 10 to 1000 nM.
On the same count and under the same terms, in the case of `OB(O)c1cc(F)cc(F)c1` [Compound I-24] it was 10 to 1000 nM.
Same read-out and setting: in the case of `Cc1cc(Br)cc(B(O)O)c1` [Compound I-25] it was 10 to 1000 nM.
`OB(O)c1cc(F)cc(Br)c1` [Compound I-26]: the Ki is 10 to 100 nM.
On the same count and under the same terms, the figure for `OB(O)c1cc(OC(F)(F)F)ccc1F` [Compound I-27] is 10 to 100 nM.
Turning to `OB(O)c1ccc(F)c(OCC(F)(F)F)c1` [Compound I-28], the Ki is 10 to 1000 nM.
As for `OB(O)c1cccc(Br)c1` [Compound I-29], the Ki lay in the range of 10 to 100 nM.
Turning to `CCC[C@H]1CC[C@H](c2ccc(B(O)O)cc2)CC1` [Compound I-30], the Ki was less than 10 nM.
Regarding `OB(O)c1ccc(-c2cccs2)cc1` [Compound I-31], the Ki lay in the range of 10 to 100 nM.
As to `COc1ccc(B(O)O)cc1Cl` [Compound I-32], the Ki was 10 to 1000 nM.
With `Cc1ccc(B(O)O)cc1Cl` [Compound I-33], the Ki lay within 10 to 1000 nM.
Same read-out and setting: the figure for `OB(O)c1ccc(Br)c(F)c1F` [Compound I-34] is 10 to 100 nM; for `CC(C)Oc1ccc(B(O)O)cc1Cl` [Compound I-35] it is 10 to 100 nM; for `CCCCOc1ccc(B(O)O)cc1F` [Compound I-36] it is less than 10 nM.
In the case of `OB(O)c1ccc(Cl)s1` [Compound I-37], the Ki lay in the range of 10 to 1000 nM.
Still for that read-out and setting: the figure for `CCCCOc1ccc(B(O)O)cc1Cl` [Compound I-38] is less than 10 nM.
On to `OB(O)c1ccccc1Cl` [Compound I-39], for which the Ki was 10 to 1000 nM.
With `OB(O)c1cccs1` [Compound I-40], the Ki was greater than 1000 nM.
In the case of `OB(O)c1cccc2cnccc12` [Compound I-41], the Ki is greater than 1000 nM.
Consider `CC(=O)c1cccc(B(O)O)c1` [Compound I-42], for which the Ki lay in the range of 10 to 1000 nM.
Regarding `OB(O)c1ccc(C2CCCC2)cc1` [Compound I-43], the Ki was less than 10 nM.
Still for that read-out and setting: the figure for `OB(O)c1c(F)c(F)c(Br)c(F)c1F` [Compound I-44] is greater than 1000 nM; for `OB(O)c1cccc(OC(F)(F)F)c1` [Compound I-45] it is 10 to 1000 nM; for `N#Cc1ccc(B(O)O)cc1` [Compound I-46] it is 10 to 1000 nM.
`CS(=O)(=O)c1cccc(B(O)O)c1` [Compound I-47]: the inhibitory constant (Ki) was greater than 1000 nM.
For the molecule `OB(O)c1ccccc1OC(F)(F)F` [Compound I-48], the Ki was in the range of 10 to 1000 nM.
In the case of `CCCCCCCc1ccc(B(O)O)cc1` [Compound I-49], the Ki is less than 10 nM.
On to `OB(O)c1cccc(C(F)(F)F)c1` [Compound I-50], for which the Ki is 10 to 100 nM.
For `OB(O)c1ccsc1Cl` [Compound I-51], the Ki lay in the range of 10 to 1000 nM.
On to `CCOc1ccc2cc(B(O)O)ccc2c1` [Compound I-52], for which the Ki was less than 10 nM.
`CCCCOc1c(F)c(F)c(B(O)O)c(F)c1F` [Compound I-53]: the Ki was greater than 1000 nM.
As for `CCCOc1c(F)c(F)c(B(O)O)c(F)c1F` [Compound I-54], the Ki is greater than 1000 nM.
On the same count and under the same terms, in the case of `OB(O)c1c(F)c(F)cc(F)c1F` [Compound I-55] it was greater than 1000 nM; in that of `OB(O)c1ccc2cc(OCc3ccccc3)ccc2c1` [Compound I-56], less than 10 nM.
As to `CCc1ccc(B(O)O)cc1` [Compound I-57], the Ki was 10 to 1000 nM.
`CCCc1ccc(B(O)O)cc1` [Compound I-58]: the inhibition constant Ki fell in the range of 10 to 100 nM.
Regarding `CCOc1ccc(B(O)O)cc1` [Compound I-59], the Ki lay within 10 to 1000 nM.
Same read-out and setting: in the case of `CCCOc1ccc(B(O)O)cc1` [Compound I-60] it was 10 to 100 nM; in that of `CCCCOc1ccc(B(O)O)cc1` [Compound I-61], 10 to 100 nM; in that of `OB(O)c1cncc2ccccc12` [Compound I-62], greater than 1000 nM.
Regarding `OB(O)c1cc(C(F)(F)F)cc(C(F)(F)F)c1` [Compound I-63], the inhibition constant (Ki) was greater than 1000 nM.
On the same count and under the same terms, the figure for `OB(O)c1ccoc1` [Compound I-64] is greater than 1000 nM; for `OB(O)c1cnc2ccccc2c1` [Compound I-65] it is greater than 1000 nM.
In the case of `O=[N+]([O-])c1ccccc1B(O)O` [Compound I-66], the Ki is greater than 1000 nM.
For the molecule `CN(C)c1ccc(B(O)O)cc1` [Compound I-68], the Ki is greater than 1000 nM.
The same measure, in the same setting: the figure for `OB(O)c1ccc(Br)cc1` [Compound I-69] is 10 to 1000 nM; for `OB(O)c1ccc(I)cc1` [Compound I-70] it is 10 to 100 nM; for `OB(O)c1cccc(F)c1` [Compound I-71] it is greater than 1000 nM.
As to `OB(O)c1ccc(F)cc1` [Compound I-72], the Ki is greater than 1000 nM.
On to `OB(O)c1cccc(Cl)c1` [Compound I-73], for which the Ki fell in the range of 10 to 1000 nM.
On to `OB(O)c1ccc(O)cc1` [Compound I-74], for which the Ki was greater than 1000 nM.
On the same count and under the same terms, in the case of `OB(O)c1ccc(Cl)c(Cl)c1` [Compound I-75] it was 10 to 100 nM; in that of `COc1cccc(B(O)O)c1` [Compound I-76], greater than 1000 nM; in that of `COc1ccc(B(O)O)cc1OC` [Compound I-77], greater than 1000 nM.
Same read-out and setting: in the case of `COc1ccccc1B(O)O` [Compound I-78] it was greater than 1000 nM; in that of `Cc1cccc(B(O)O)c1` [Compound I-79], greater than 1000 nM; in that of `Cc1ccc(B(O)O)cc1C` [Compound I-80], 10 to 1000 nM.
As to `Cc1ccccc1B(O)O` [Compound I-81], the Ki was greater than 1000 nM.
On to `O=[N+]([O-])c1ccc(B(O)O)cc1` [Compound I-83], for which the Ki fell in the range of 10 to 1000 nM.
Turning to `CS(=O)(=O)c1ccc(B(O)O)cc1` [Compound I-84], the Ki lay within 10 to 1000 nM.
